Measurements: ChEMBL document CHEMBL6096690, “Synthesis and Biological Evaluation of Peripheral HTR2A Antagonists for Colorectal Cancer” (J Med Chem, 2025)

Target: 5-hydroxytryptamine receptor 2A (Homo sapiens, UniProt P28223)
Experiment: Antagonist activity at 5HTR2A (unknown origin) assessed as inhibition of 5-HTR2A

5-hydroxytryptamine receptor 2A, sequence (P28223 whole entry): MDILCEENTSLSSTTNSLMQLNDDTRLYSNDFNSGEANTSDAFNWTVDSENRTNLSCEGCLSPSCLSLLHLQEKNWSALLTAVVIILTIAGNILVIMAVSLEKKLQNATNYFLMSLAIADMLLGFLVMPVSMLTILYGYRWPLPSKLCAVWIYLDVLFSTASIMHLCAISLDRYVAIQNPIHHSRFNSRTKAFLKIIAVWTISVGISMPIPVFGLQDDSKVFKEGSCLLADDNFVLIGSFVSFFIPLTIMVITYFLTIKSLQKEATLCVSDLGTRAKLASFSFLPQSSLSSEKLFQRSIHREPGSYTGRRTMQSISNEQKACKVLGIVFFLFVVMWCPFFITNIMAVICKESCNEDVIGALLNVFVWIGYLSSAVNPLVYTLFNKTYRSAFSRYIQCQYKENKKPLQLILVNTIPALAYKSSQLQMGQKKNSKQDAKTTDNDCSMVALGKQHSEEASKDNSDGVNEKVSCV

Compound: O=C(NCc1ccc(OCC(O)CN2CCN(c3nsc4ccccc34)CC2)cc1)N(Cc1ccc(F)cc1)C1CCNCC1 (stereo unspecified)
- IC50: 54.2 nM
